Results: patent publication US20100267561A1, “HERBICIDAL PYRIDAZINONE DERIVATIVES” (priority 2007, published 2010)

Key:
Assay in all cases: Test B pre-/postemergence plant response
Format in all cases: in vivo
[1] = tested on: Italian ryegrass (Lolium multiflorum); conditions: Preemergence; for Ryegrass, Italian plant response rating: 8 g ai/ha
Excerpt: (§1) Seeds of plant species selected from blackgrass (Alopecurus myosuroides), downy bromegrass (Bromus tectorum), green foxtail (Setaria viridis), Italian ryegrass (Lolium multiflorum), wheat (Triticum aestivum), wild oat (Avena fatua), catchweed bedstraw (Galium aparine), bermudagrass (Cynodon dactylon), surinam grass (Brachiaria decumbens), cocklebur (Xanthium strumarium), corn (Zea mays), large crabgrass (Digitaria sanguinalis), woolly cupgrass (Eriochloa villosa), giant foxtail (Setaria faberii), goosegrass (Eleusine indica), johnsongrass (Sorghum halepense), kochia (Kochia scoparia), lambsquarters (Chenopodium album), morningglory (Ipomoea coccinea), eastern black (E.B.) nightshade (Solanum ptycanthum), yellow nutsedge (Cyperus esculentus), pigweed (Amaranthus retroflexus), common ragweed (Ambrosia elation), Russian thistle (Salsola iberica), soybean (Glycine max), common (oilseed) sunflower (Helianthus annuus), and velvetleaf (Abutilon theophrasti) were planted and treated preemergence with test chemicals formulated in a non-phytotoxic solvent mixture which included a surfactant.
(§2) At the same time, plants selected from these crop and weed species and also winter barley (Hordeum vulgare), canarygrass (Phalaris minor), chickweed (Stellaria media) and windgrass (Apera spica-venti) were treated with postemergence applications of some of the test chemicals formulated in the same manner. Plants ranged in height from 2 to 18 cm (1- to 4-leaf stage) for postemergence treatments.
(§3) Plant species in the flooded paddy test consisted of rice (Oryza sativa), umbrella sedge (Cyperus difformis), ducksalad (Heteranthera limosa) and barnyardgrass (Echinochloa crus-galli) grown to the 2-leaf stage for testing. At time of treatment, test pots were flooded to 3 cm above the soil surface, treated by application of test compounds directly to the paddy water, and then maintained at that water depth for the duration of the test. Treated plants and controls were maintained in a greenhouse for 13 to 15 days, after which time all species were compared to controls and visually evaluated. Plant response ratings, summarized in Table B, are based on a scale of 0 to 100 where 0 is no effect and 100 is complete control. A dash (-) response means no test result.

[2] = tested on: bermudagrass (Cynodon dactylon); conditions: Preemergence
Excerpt: as §1, §2, §3

[3] = tested on: blackgrass (Alopecurus myosuroides); conditions: Preemergence
Excerpt: as §1, §2, §3

[4] = tested on: common ragweed (Ambrosia elation); conditions: Preemergence; for Ragweed plant response rating: 8 g ai/ha
Excerpt: as §1, §2, §3

[5] = tested on: corn (Zea mays); conditions: Preemergence; for Corn plant response rating: 8 g ai/ha
Excerpt: as §1, §2, §3

[6] = tested on: eastern black (E.B.) nightshade (Solanum ptycanthum); conditions: Preemergence; for Nightshade, E. B. plant response rating: 8 g ai/ha
Excerpt: as §1, §2, §3

[7] = tested on: giant foxtail (Setaria faberii); conditions: Preemergence; for Foxtail, Giant plant response rating: 8 g ai/ha
Excerpt: as §1, §2, §3

[8] = tested on: johnsongrass (Sorghum halepense); conditions: Preemergence
Excerpt: as §1, §2, §3

[9] = tested on: lambsquarters (Chenopodium album); conditions: Preemergence; for Lambsquarters plant response rating: 8 g ai/ha
Excerpt: as §1, §2, §3

[10] = tested on: morningglory (Ipomoea coccinea); conditions: Preemergence; for Morningglory plant response rating: 8 g ai/ha
Excerpt: as §1, §2, §3

[11] = tested on: surinam grass (Brachiaria decumbens); conditions: Preemergence; for Surinam Grass plant response rating: 8 g ai/ha
Excerpt: as §1, §2, §3

[12] = tested on: wild oat (Avena fatua); conditions: Preemergence; for Oat, Wild plant response rating: 8 g ai/ha
Excerpt: as §1, §2, §3

[13] = tested on: yellow nutsedge (Cyperus esculentus); conditions: Preemergence; for Nutsedge, Yellow plant response rating: 8 g ai/ha
Excerpt: as §1, §2, §3

[14] = 16 g ai/ha, scale 0 to 100 (0 no effect, 100 complete control)
[15] = 31 g ai/ha, 0 to 100 scale, 0 no effect, 100 complete control
[16] = 31 g ai/ha, scale 0 to 100 (0 no effect, 100 complete control)

Cc1cc(-c2ccc(C(F)(F)F)cc2)nn1-c1c(O)c(C(C)C)nn(C)c1=O [Compound 27]
95: Plant response rating, Ryegrass, Italian ([1]; 62 g ai/ha, scale 0 to 100)
100: Plant response rating, Bermudagrass [2, 15] | Plant response rating, Bermudagrass ([2]; 62 g ai/ha, scale 0 to 100) | Plant response rating, Blackgrass ([3]; 62 g ai/ha, scale 0 to 100)
70: Plant response rating, Ryegrass, Italian [1, 15]
50: Plant response rating, Blackgrass [3, 15] | Plant response rating, Oat, Wild [12, 15] | Plant response rating, Oat, Wild ([12]; 62 g ai/ha, scale 0 to 100)
85: Plant response rating, Corn ([5]; 62 g ai/ha, scale 0 to 100) | Plant response rating, Johnsongrass ([8]; 62 g ai/ha, scale 0 to 100)
75: Plant response rating, Corn [5, 15] | Plant response rating, Johnsongrass [8, 15] | Plant response rating, Surinam Grass ([11]; 62 g ai/ha, scale 0 to 100)
20: Plant response rating, Blackgrass [3, 14] | Plant response rating, Foxtail, Giant ([7]; 62 g ai/ha, scale 0 to 100)
0: Plant response rating, Ryegrass, Italian [1, 14] | Ryegrass, Italian plant response rating ([1]; scale 0 to 100) | Plant response rating, Bermudagrass [2, 14] | Plant response rating, Ragweed [4, 14] | Plant response rating, Ragweed [4, 15] | Plant response rating, Ragweed ([4]; 62 g ai/ha, scale 0 to 100) | Ragweed plant response rating ([4]; scale 0 to 100) | Plant response rating, Corn [5, 14] | Corn plant response rating ([5]; scale 0 to 100) | Plant response rating, Nightshade, E. B. [6, 14] | Plant response rating, Nightshade, E. B. [6, 15] | Plant response rating, Nightshade, E. B. ([6]; 62 g ai/ha, scale 0 to 100) | Nightshade, E. B. plant response rating ([6]; scale 0 to 100) | Plant response rating, Foxtail, Giant [7, 14] | Plant response rating, Foxtail, Giant [7, 15] | Foxtail, Giant plant response rating ([7]; scale 0 to 100) | Johnsongrass plant response rating ([8]; 8 g ai/ha, scale 0 to 100) | Plant response rating, Lambsquarters [9, 14] | Plant response rating, Lambsquarters ([9]; 62 g ai/ha, scale 0 to 100) | Lambsquarters plant response rating ([9]; scale 0 to 100) | Plant response rating, Morningglory [10, 14] | Plant response rating, Morningglory [10, 15] | Plant response rating, Morningglory ([10]; 62 g ai/ha, scale 0 to 100) | Morningglory plant response rating ([10]; scale 0 to 100) | Plant response rating, Surinam Grass [11, 14] | Plant response rating, Surinam Grass [11, 15] | Surinam Grass plant response rating ([11]; scale 0 to 100) | Plant response rating, Oat, Wild [12, 14] | Oat, Wild plant response rating ([12]; scale 0 to 100) | Plant response rating, Nutsedge, Yellow [13, 14] | Plant response rating, Nutsedge, Yellow [13, 15] | Plant response rating, Nutsedge, Yellow ([13]; 62 g ai/ha, scale 0 to 100) | Nutsedge, Yellow plant response rating ([13]; scale 0 to 100)
40: Plant response rating, Johnsongrass [8, 14]

Cc1ccc(-c2ccc(Cl)cc2)cc1-c1c(O)cnn(C)c1=O [Compound 46]
95: Plant response rating, Foxtail, Giant [7, 15]
0: Ryegrass, Italian plant response rating ([1]; scale 0 to 100) | Bermudagrass plant response rating ([2]; 8 g ai/ha, scale 0 to 100 (0 no effect, 100 complete control)) | Blackgrass plant response rating ([3]; 8 g ai/ha, scale 0 to 100) | Plant response rating, Ragweed [4, 14] | Plant response rating, Ragweed [4, 16] | Plant response rating, Ragweed ([4]; 62 g ai/ha, scale 0 to 100) | Ragweed plant response rating ([4]; scale 0 to 100) | Plant response rating, Corn [5, 14] | Plant response rating, Corn [5, 15] | Plant response rating, Corn ([5]; 62 g ai/ha, scale 0 to 100) | Corn plant response rating ([5]; scale 0 to 100) | Plant response rating, Nightshade, E. B. [6, 14] | Nightshade, E. B. plant response rating ([6]; scale 0 to 100) | Foxtail, Giant plant response rating ([7]; scale 0 to 100) | Plant response rating, Lambsquarters [9, 14] | Plant response rating, Lambsquarters [9, 15] | Plant response rating, Lambsquarters ([9]; 62 g ai/ha, scale 0 to 100) | Lambsquarters plant response rating ([9]; scale 0 to 100) | Plant response rating, Morningglory [10, 14] | Plant response rating, Morningglory [10, 16] | Plant response rating, Morningglory ([10]; 62 g ai/ha, scale 0 to 100) | Morningglory plant response rating ([10]; scale 0 to 100) | Plant response rating, Surinam Grass [11, 14] | Plant response rating, Surinam Grass [11, 16] | Plant response rating, Surinam Grass ([11]; 62 g ai/ha, 0 to 100 scale, 0 no effect, 100 complete control) | Surinam Grass plant response rating ([11]; scale 0 to 100) | Plant response rating, Oat, Wild [12, 14] | Plant response rating, Oat, Wild [12, 16] | Oat, Wild plant response rating ([12]; scale 0 to 100) | Plant response rating, Nutsedge, Yellow [13, 14] | Plant response rating, Nutsedge, Yellow [13, 16] | Plant response rating, Nutsedge, Yellow ([13]; 62 g ai/ha, scale 0 to 100) | Nutsedge, Yellow plant response rating ([13]; scale 0 to 100)
90: Plant response rating, Johnsongrass ([8]; 62 g ai/ha, scale 0 to 100)
30: Plant response rating, Blackgrass [3, 14]
10: Plant response rating, Ryegrass, Italian [1, 14]
40: Plant response rating, Ryegrass, Italian [1, 16] | Plant response rating, Blackgrass [3, 15]
15: Plant response rating, Foxtail, Giant [7, 14]
20: Plant response rating, Bermudagrass [2, 14] | Plant response rating, Nightshade, E. B. [6, 16]
85: Plant response rating, Bermudagrass [2, 15] | Plant response rating, Blackgrass ([3]; 62 g ai/ha, scale 0 to 100) | Plant response rating, Johnsongrass [8, 15]
55: Plant response rating, Johnsongrass [8, 14]
35: Plant response rating, Oat, Wild ([12]; 62 g ai/ha, scale 0 to 100)
100: Plant response rating, Ryegrass, Italian ([1]; 62 g ai/ha, scale 0 to 100) | Plant response rating, Bermudagrass ([2]; 62 g ai/ha, scale 0 to 100) | Plant response rating, Nightshade, E. B. ([6]; 62 g ai/ha, scale 0 to 100) | Plant response rating, Foxtail, Giant ([7]; 62 g ai/ha, scale 0 to 100)
